Experimental data reported in US20230212202A1, “TREATMENT OF MGMT DEFICIENT CANCER WITH 2-FLUOROETHYL-SUBSTITUTED NITROSOUREAS AND OTHER COMPOUNDS” (YALE UNIVERSITY, priority 2021, published 2023).

Experiments:
[1] = system: γH2AX, 53BP1 and pRPA foci in LN229 MGMT+/-, MMR+/- cells; assay: Immunofluorescence foci assays; type: cell-based, human; settings: 20 µM
Protocol: Immunofluorescence Foci Assays. High-throughput immunofluorescence foci assays were performed at the Yale Center for Molecular Discovery (YCMD). Cells were seeded at 2000 cells/well in black polystyrene flat bottom 384-well plates (Greiner Bio-One) and allowed to adhere overnight. Compound addition was performed utilizing a Labcyte Echo 550 liquid handler (Beckman Coulter), with 6 replicates per test condition and 12 replicates per control condition. Following drug incubation, cells were fixed and stained for phospho-SER139-H2AX (yH2AX), 53BP1, or phospho-SER33-RPA2 (pRPA) as follows.
γH2AX protocol: Cells were fixed with 4% paraformaldehyde in 1X PBS for 15 min, washed twice with 1X PBS, incubated in extraction buffer (0.5% Triton X-100 in 1X PBS) for 10 min, washed twice with 1X PBS, and incubated in blocking buffer (Blocker Casein in PBS, Thermo Scientific + 5% goat serum, Life Technologies) for 1 h. Mouse anti-phospho-histone H2A.X (Ser139) antibody (clone JBW301, Millipore, 05-636) was added 1/1000 in blocking buffer at 4° C. overnight. After washing with 1X PBS, cells were incubated with goat anti-mouse IgG (H+L) highly cross-adsorbed secondary antibody, Alexa Fluor 647 (Invitrogen, A-21236) 1/500 and with 1 µg/mL Hoechst nucleic acid dye in blocking buffer for 2 h, and then washed with 1X PBS. […]

LN229 MGMT-/MMR- cells = assay: IR alkaline comet assay; type: cell-based, human; settings: 200 µM, 2-24 h
LN229 MGMT-/MMR+ cells = assay: Genomic DNA denaturing gel electrophoresis; type: cell-based, human
Protocol: Genomic DNA Denaturing Gel Electrophoresis. Assay was adapted from N. Bossuet-Greif et al., The Colibactin Genotoxin Generates DNA Interstrand Cross-Links in Infected Cells. mBio 9, (2018). Cells were trypsinized, washed with 1X PBS, and stored at -80° C. prior to processing. Genomic DNA was extracted with the DNeasy Blood & Tissue Kit (Qiagen) per kit protocol. A 0.7% agarose gel was prepared in 100 mM NaCl-2mM EDTA (pH 8) and soaked in 40 mM NaOH-1 mM EDTA running buffer for 2 h. Genomic DNA (400 ng/well) was then loaded in 1X BlueJuice loading buffer (Invitrogen) and subjected to electrophoresis at 2 V/cm for 30 min, followed by 3 V/cm for 2 h. The gel was neutralized in 150 mM NaCl-100 mM Tris (pH 7.4) for 30 min, twice, and then stained with 1X SYBR Gold in 150 mM NaCl-100 mM Tris (pH 7.4) for 90 min. Imaging was performed on a ChemiDoc XRS+ Molecular Imager (Bio-Rad).

[2] = system: linearized pUC19 plasmid DNA; assay: Melting temperature assay; type: biochemical; settings: 100 or 500 µM, 3 h

Q: Which results are given for `NC(=O)c1ncn2c(=O)n(CCF)nnc12` [KL-50]?
A: γH2AX, 53BP1, pRPA foci formation ([1]; 2 to 48 h): maximal foci response at 48 h, specifically in MGMT- cells and irrespective of MMR status; DDR foci across cell cycle phases ([1]; 48 h): foci formation primarily in the S- and G2-phases; DNA damage in unirradiated samples, time course (LN229 MGMT-/MMR- cells; 0 Gy): maximal damage at 2 h; DNA mobility after IR, time course (LN229 MGMT-/MMR- cells; 10 Gy): time-dependent decrease in DNA mobility; crosslinked genomic DNA (LN229 MGMT-/MMR+ cells): presence of crosslinked DNA; DNA melting temperature [2]: comparable changes in measured DNA melting temperature
